Data reported in patent US10499642B2, “Isoxazoline-substituted benzamides and analogues as insecticides” (SYNGENTA PARTICIPATIONS AG, priority 2015, dated 2019).

Columns and labels:
Assay type in all cases: in vivo
[1] = system: Diabrotica Balteata; experiment: Diabrotica balteata (corn root worm) maize sprout test; conditions: 96 h, read-out: effect in at least one of the two categories (mortality or growth inhibition)
Summary of the method: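 Scoring covered both mortality and growth inhibition relative to untreated controls, 4 days post-infestation. Test solutions at 200 ppm, diluted in water from 10′000 ppm DMSO stocks, were sprayed onto agar-held maize sprouts, which after drying received 6 to 10 L2 larvae each well.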

[2] = system: Thrips tabaci; experiment: Thrips tabaci (onion thrips) sunflower leaf disc test; conditions: foliar, 144 h
Procedure: Thrips tabaci (Onion Thrips):
Sunflower leaf discs were placed on agar in 24-well microtiter plates and sprayed with aqueous test solutions prepared from 10′000 ppm DMSO stock solutions. After drying the leaf discs were infested with a thrips population of mixed ages. The samples were assessed for mortality 6 days after infestation.

[3] = system: Myzus persicae; experiment: Myzus persicae (green peach aphid) sunflower leaf disc test; conditions: foliar, 144 h
Procedure: Myzus persicae (Green Peach Aphid):
Sunflower leaf discs were placed on agar in a 24-well microtiter plate and sprayed with test solutions at an application rate of 200 ppm. After drying, the leaf discs were infested with an aphid population of mixed ages. After an incubation period of 6 days after treatment, samples were checked for mortality. The following compounds gave at least 80% mortality of Myzus persicae: […]

[4] = system: Tetranychus urticae; experiment: Tetranychus urticae (two-spotted spider mite) bean leaf disc test; conditions: foliar, 192 h
Procedure: Tetranychus urticae (Two-Spotted Spider Mite):
Bean leaf discs on agar in 24-well microtiter plates were sprayed with aqueous test solutions prepared from 10′000 ppm DMSO stock solutions. After drying the leaf discs were infested with a mite population of mixed ages. The samples were assessed for mortality on mixed population (mobile stages) 8 days after infestation.

[5] = system: Plutella xylostella; experiment: Plutella xylostella (diamond back moth) artificial diet test; conditions: 120 h, read-out: effect in at least one of the two categories (mortality or growth inhibition)
Summary of the method: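 At a 200 ppm rate, test solutions were applied to artificial diet and allowed to dry before second-instar larvae were added. Five days later, larval mortality and growth inhibition were rated against untreated samples.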

[6] = system: Spodoptera littoralis; experiment: Spodoptera littoralis (Egyptian cotton leaf worm) cotton leaf disc test; conditions: foliar, 72 h, read-out: control (at least one of mortality, anti-feedant effect, and growth inhibition)
Summary of the method: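 Five first-instar larvae per disc were placed on dried, sprayed cotton leaf discs held on agar. Test solutions were aqueous, made from 10′000 ppm DMSO stocks. At day 3, control was counted when mortality, feeding deterrence or growth inhibition exceeded the untreated discs.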

Cc1cc(C2=NO[C@@](c3cc(Cl)c(Cl)c(Cl)c3)(C(F)(F)F)C2)ccc1C(=O)NC1CC(C#N)=NO1 (stereo partly drawn) [Compound A145, N-(3-cyano-4,5-dihydroisoxazol-5-yl)-2-methyl-4-[(5S)-5-(3,4,5-trichlorophenyl)-5-(trifluoromethyl)-4H-isoxazol-3-yl]benzamide]
≥ 80%: percent effect (mortality or growth inhibition) at 200 ppm [1] | mortality at 200 ppm [2] | mortality at 200 ppm [3] | mortality at 200 ppm [4] | percent effect (mortality or growth inhibition) at 200 ppm [5] | percent control (mortality, anti-feedant effect or growth inhibition) at 200 ppm [6]

Cc1cc(C2=NO[C@@](c3cc(Cl)cc(Cl)c3)(C(F)(F)F)C2)ccc1C(=O)N(C=O)C1CC(C(F)(F)F)=NO1 (stereo partly drawn) [Compound A138]
≥ 80%: percent effect (mortality or growth inhibition) at 200 ppm [1] | mortality at 200 ppm [2] | mortality at 200 ppm [3] | mortality at 200 ppm [4] | percent effect (mortality or growth inhibition) at 200 ppm [5] | percent control (mortality, anti-feedant effect or growth inhibition) at 200 ppm [6]

COCC1=NOC(NC(=O)c2ccc(C3=NO[C@@](c4cc(Cl)c(F)c(Cl)c4)(C(F)(F)F)C3)cc2C)C1 (stereo partly drawn) [Compound A090]
≥ 80%: percent effect (mortality or growth inhibition) at 200 ppm [1] | mortality at 200 ppm [2] | mortality at 200 ppm [3] | mortality at 200 ppm [4] | percent effect (mortality or growth inhibition) at 200 ppm [5] | percent control (mortality, anti-feedant effect or growth inhibition) at 200 ppm [6]

C=C(Cl)COC1=NOC(NC(=O)c2ccc(C3=NO[C@@](c4cc(Cl)c(F)c(Cl)c4)(C(F)(F)F)C3)cc2C)C1 (stereo partly drawn) [Compound A100, N-[3-(2-chloroallyloxy)-4,5-dihydroisoxazol-5-yl]-4-[(5S)-5-(3,5-dichloro-4-fluoro-phenyl)-5-(trifluoromethyl)-4H-isoxazol-3-yl]-2-methyl-benzamide]
≥ 80%: percent effect (mortality or growth inhibition) at 200 ppm [1] | mortality at 200 ppm [2] | mortality at 200 ppm [3] | mortality at 200 ppm [4] | percent effect (mortality or growth inhibition) at 200 ppm [5] | percent control (mortality, anti-feedant effect or growth inhibition) at 200 ppm [6]

CCSC1=NOC(NC(=O)c2ccc(C3=NO[C@@](c4cc(Cl)cc(C(F)(F)F)c4)(C(F)(F)F)C3)cc2C)C1 (stereo partly drawn) [Compound A051]
≥ 80%: percent effect (mortality or growth inhibition) at 200 ppm [1] | mortality at 200 ppm [2] | mortality at 200 ppm [3] | mortality at 200 ppm [4] | percent effect (mortality or growth inhibition) at 200 ppm [5] | percent control (mortality, anti-feedant effect or growth inhibition) at 200 ppm [6]

CC1=NOC(N(C=O)C(=O)c2ccc(C3=NO[C@@](c4cc(Cl)c(Cl)c(Cl)c4)(C(F)(F)F)C3)cc2Br)C1 (stereo partly drawn) [Compound A035, 2-bromo-N-formyl-N-(3-methyl-4,5-dihydroisoxazol-5-yl)-4-[(5S)-5-(3,4,5-trichlorophenyl)-5-(trifluoromethyl)-4H-isoxazol-3-yl]benzamide]
≥ 80%: percent effect (mortality or growth inhibition) at 200 ppm [1] | mortality at 200 ppm [2] | mortality at 200 ppm [3] | mortality at 200 ppm [4] | percent effect (mortality or growth inhibition) at 200 ppm [5] | percent control (mortality, anti-feedant effect or growth inhibition) at 200 ppm [6]

Cc1cc(C2=NO[C@@](c3cc(Cl)cc(Cl)c3)(C(F)(F)F)C2)ccc1C(=O)N(C=O)C1CC(Br)=NO1 (stereo partly drawn) [Compound A056, N-(3-bromo-4,5-dihydroisoxazol-5-yl)-4-[(5S)-5-(3,5-dichlorophenyl)-5-(trifluoromethyl)-4H-isoxazol-3-yl]-N-formyl-2-methyl-benzamide]
≥ 80%: percent effect (mortality or growth inhibition) at 200 ppm [1] | mortality at 200 ppm [2] | mortality at 200 ppm [3] | mortality at 200 ppm [4] | percent effect (mortality or growth inhibition) at 200 ppm [5] | percent control (mortality, anti-feedant effect or growth inhibition) at 200 ppm [6]

Cc1cc(C2=NO[C@@](c3cc(Cl)c(F)c(Cl)c3)(C(F)(F)F)C2)ccc1C(=O)NC1CC(OCC(F)(F)C(F)F)=NO1 (stereo partly drawn) [Compound A101]
≥ 80%: percent effect (mortality or growth inhibition) at 200 ppm [1] | mortality at 200 ppm [2] | mortality at 200 ppm [3] | mortality at 200 ppm [4] | percent effect (mortality or growth inhibition) at 200 ppm [5] | percent control (mortality, anti-feedant effect or growth inhibition) at 200 ppm [6]

Cc1cc(C2=NO[C@@](c3cc(Cl)c(F)c(Cl)c3)(C(F)(F)F)C2)ccc1C(=O)NC1CC(N(C)C)=NO1 (stereo partly drawn) [Compound A105, 4-[(5S)-5-(3,5-dichloro-4-fluoro-phenyl)-5-(trifluoromethyl)-4H-isoxazol-3-yl]-N-[3-(dimethylamino)-4,5-dihydroisoxazol-5-yl]-2-methyl-benzamide]
≥ 80%: percent effect (mortality or growth inhibition) at 200 ppm [1] | mortality at 200 ppm [2] | mortality at 200 ppm [3] | mortality at 200 ppm [4] | percent effect (mortality or growth inhibition) at 200 ppm [5] | percent control (mortality, anti-feedant effect or growth inhibition) at 200 ppm [6]

CC1=NOC(NC(=O)c2ccc(C3=NO[C@@](c4cc(Cl)cc(C(F)(F)F)c4)(C(F)(F)F)C3)cc2C)C1 (stereo partly drawn) [Compound A028, 4-[(5S)-5-[3-chloro-5-(trifluoromethyl)phenyl]-5-(trifluoromethyl)-4H-isoxazol-3-yl]-2-methyl-N-(3-methyl-4,5-dihydroisoxazol-5-yl)benzamide]
≥ 80%: percent effect (mortality or growth inhibition) at 200 ppm [1] | mortality at 200 ppm [2] | mortality at 200 ppm [3] | mortality at 200 ppm [4] | percent effect (mortality or growth inhibition) at 200 ppm [5] | percent control (mortality, anti-feedant effect or growth inhibition) at 200 ppm [6]

CC1=NOC(N(C=O)C(=O)c2ccc(C3=NO[C@@](c4cc(Cl)c(F)c(Cl)c4)(C(F)(F)F)C3)cc2C)C1 (stereo partly drawn) [Compound A008, 4-[(5S)-5-(3,5-dichloro-4-fluoro-phenyl)-5-(trifluoromethyl)-4H-isoxazol-3-yl]-N-formyl-2-methyl-N-(3-methyl-4,5-dihydroisoxazol-5-yl)benzamide]
≥ 80%: percent effect (mortality or growth inhibition) at 200 ppm [1] | mortality at 200 ppm [2] | mortality at 200 ppm [3] | mortality at 200 ppm [4] | percent effect (mortality or growth inhibition) at 200 ppm [5] | percent control (mortality, anti-feedant effect or growth inhibition) at 200 ppm [6]

Cc1cc(C2=NO[C@@](c3cc(Cl)c(F)c(Cl)c3)(C(F)(F)F)C2)ccc1C(=O)NC1CC(C(F)(F)F)=NO1 (stereo partly drawn) [Compound A005, 4-[(5S)-5-(3,5-dichloro-4-fluoro-phenyl)-5-(trifluoromethyl)-4H-isoxazol-3-yl]-2-methyl-N-[3-(trifluoromethyl)-4,5-dihydroisoxazol-5-yl]benzamide]
≥ 80%: percent effect (mortality or growth inhibition) at 200 ppm [1] | mortality at 200 ppm [2] | mortality at 200 ppm [3] | mortality at 200 ppm [4] | percent effect (mortality or growth inhibition) at 200 ppm [5] | percent control (mortality, anti-feedant effect or growth inhibition) at 200 ppm [6]

Cc1cc(C2=NO[C@@](c3cc(Cl)cc(Cl)c3)(C(F)(F)F)C2)ccc1C(=O)NC1CC(Br)=NO1 (stereo partly drawn) [Compound A055]
≥ 80%: percent effect (mortality or growth inhibition) at 200 ppm [1] | mortality at 200 ppm [2] | mortality at 200 ppm [3] | mortality at 200 ppm [4] | percent effect (mortality or growth inhibition) at 200 ppm [5] | percent control (mortality, anti-feedant effect or growth inhibition) at 200 ppm [6]

CCOC1=NOC(NC(=O)c2ccc(C3=NO[C@@](c4cc(Cl)cc(C(F)(F)F)c4)(C(F)(F)F)C3)cc2C)C1 (stereo partly drawn) [Compound A047]
≥ 80%: percent effect (mortality or growth inhibition) at 200 ppm [1] | mortality at 200 ppm [2] | mortality at 200 ppm [3] | mortality at 200 ppm [4] | percent effect (mortality or growth inhibition) at 200 ppm [5] | percent control (mortality, anti-feedant effect or growth inhibition) at 200 ppm [6]
